Values of other authors, collected in patent publication US7183112B2, “Uses for anti-malarial therapeutic agents” (APT Pharmaceuticals, LLC, priority 1999, dated 2007).
Where a name gives a salt, the structure may show the parent alone. Read-outs that look alike come from different tables or passages of the source.

Experiments:
allergic asthma = details: Fahy et al. 1999, cited from earlier work
[1] = cited from earlier work

Compound	efficacy for treating allergic asthma (allergic asthma; inhalation)	efficacy for treating allergic asthma (allergic asthma; intravenous administration)	solubility in water [1]
Anti IgE(E25): Anti IgE(E25), given intravenously or by inhalation for allergic asthma (Fahy et al.)	virtually ineffective	effective	–
CCN(CCO)CCCC(C)Nc1ccnc2cc(Cl)ccc12 (stereo not drawn) [hydroxychloroquine sulfate]	–	–	readily soluble
